Measured values taken from publication PMC9185314 (RSC Advances, 2022).

Target: Jack bean urease (Canavalia ensiformis, UniProt P07374)
Assay: urease inhibition assay, indophenol
Format: biochemical

Jack bean urease, sequence (P07374 whole entry, looked up): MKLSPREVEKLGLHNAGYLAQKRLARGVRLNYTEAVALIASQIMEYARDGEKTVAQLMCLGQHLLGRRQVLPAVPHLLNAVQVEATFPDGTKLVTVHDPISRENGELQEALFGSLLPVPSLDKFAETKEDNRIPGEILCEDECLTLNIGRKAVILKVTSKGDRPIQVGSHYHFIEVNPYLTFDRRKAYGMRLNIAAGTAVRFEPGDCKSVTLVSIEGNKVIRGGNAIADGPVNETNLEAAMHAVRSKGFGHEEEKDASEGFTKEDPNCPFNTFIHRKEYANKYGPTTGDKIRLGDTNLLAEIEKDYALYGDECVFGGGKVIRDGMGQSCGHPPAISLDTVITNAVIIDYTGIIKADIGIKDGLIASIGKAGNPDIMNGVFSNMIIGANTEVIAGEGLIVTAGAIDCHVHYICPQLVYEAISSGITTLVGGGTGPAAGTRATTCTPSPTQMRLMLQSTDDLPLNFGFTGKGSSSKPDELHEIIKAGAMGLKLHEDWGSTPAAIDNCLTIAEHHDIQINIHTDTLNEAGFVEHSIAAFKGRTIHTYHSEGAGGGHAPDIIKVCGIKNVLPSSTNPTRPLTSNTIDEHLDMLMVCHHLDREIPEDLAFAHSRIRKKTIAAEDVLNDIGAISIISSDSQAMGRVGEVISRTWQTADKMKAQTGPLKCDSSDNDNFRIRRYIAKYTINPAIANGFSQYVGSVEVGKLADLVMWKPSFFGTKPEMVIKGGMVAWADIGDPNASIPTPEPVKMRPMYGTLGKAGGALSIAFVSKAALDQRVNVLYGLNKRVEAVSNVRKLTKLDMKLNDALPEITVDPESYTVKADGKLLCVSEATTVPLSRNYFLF

IC50: 38.9 ± 1.7 nM
SMILES: CC(=O)c1ccc(NC(=S)NC(=O)c2ccc(Cl)cc2Cl)cc1 [compound 4, N-((4-Acetylphenyl)carbamothioyl)-2,4-dichlorobenzamide]
